Data reported in ChEMBL document CHEMBL3132769, “Fragment growing to retain or alter the selectivity of anchored kinase hinge-binding fragments” (Medchemcomm, 2014).

Columns and labels:
[1] = biological target: Tyrosine-protein kinase BTK (Homo sapiens) (UniProt Q06187); experiment: Inhibition of human full length BTK expressed in baculovirus assessed as substrate phosphorylation using fluorescence-labelled peptides as substrate at 420 uM after 90 mins by microfluidic peptide phosphorylation assay
Tyrosine-protein kinase BTK (Homo sapiens), sequence (Q06187 whole entry): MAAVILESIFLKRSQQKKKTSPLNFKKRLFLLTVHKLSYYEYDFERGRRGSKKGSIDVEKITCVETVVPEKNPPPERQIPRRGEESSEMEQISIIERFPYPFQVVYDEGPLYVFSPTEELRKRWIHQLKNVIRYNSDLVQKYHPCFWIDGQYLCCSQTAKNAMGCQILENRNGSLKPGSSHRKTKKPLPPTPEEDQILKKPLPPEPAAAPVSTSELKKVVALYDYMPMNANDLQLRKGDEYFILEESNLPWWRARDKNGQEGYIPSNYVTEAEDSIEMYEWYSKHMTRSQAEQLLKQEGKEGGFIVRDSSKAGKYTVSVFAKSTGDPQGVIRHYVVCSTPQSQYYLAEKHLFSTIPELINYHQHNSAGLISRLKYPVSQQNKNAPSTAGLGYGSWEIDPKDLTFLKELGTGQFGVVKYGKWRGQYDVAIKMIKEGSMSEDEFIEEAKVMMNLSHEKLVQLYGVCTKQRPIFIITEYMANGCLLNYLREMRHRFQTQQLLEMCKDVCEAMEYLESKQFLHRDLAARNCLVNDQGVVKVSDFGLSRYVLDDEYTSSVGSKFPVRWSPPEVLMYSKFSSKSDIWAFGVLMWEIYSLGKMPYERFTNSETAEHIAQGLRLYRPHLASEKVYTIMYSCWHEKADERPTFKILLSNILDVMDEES

[2] = biological target: T1, Inhibitor of nuclear factor kappa-B kinase subunit beta (Homo sapiens) (UniProt O14920); experiment: Inhibition of human full length IKK beta expressed in baculovirus assessed as substrate phosphorylation using fluorescence-labelled peptides as substrate at 0.2 uM after 90 mins by microfluidic peptide phosphorylation assay
T1 sequence (whole entry): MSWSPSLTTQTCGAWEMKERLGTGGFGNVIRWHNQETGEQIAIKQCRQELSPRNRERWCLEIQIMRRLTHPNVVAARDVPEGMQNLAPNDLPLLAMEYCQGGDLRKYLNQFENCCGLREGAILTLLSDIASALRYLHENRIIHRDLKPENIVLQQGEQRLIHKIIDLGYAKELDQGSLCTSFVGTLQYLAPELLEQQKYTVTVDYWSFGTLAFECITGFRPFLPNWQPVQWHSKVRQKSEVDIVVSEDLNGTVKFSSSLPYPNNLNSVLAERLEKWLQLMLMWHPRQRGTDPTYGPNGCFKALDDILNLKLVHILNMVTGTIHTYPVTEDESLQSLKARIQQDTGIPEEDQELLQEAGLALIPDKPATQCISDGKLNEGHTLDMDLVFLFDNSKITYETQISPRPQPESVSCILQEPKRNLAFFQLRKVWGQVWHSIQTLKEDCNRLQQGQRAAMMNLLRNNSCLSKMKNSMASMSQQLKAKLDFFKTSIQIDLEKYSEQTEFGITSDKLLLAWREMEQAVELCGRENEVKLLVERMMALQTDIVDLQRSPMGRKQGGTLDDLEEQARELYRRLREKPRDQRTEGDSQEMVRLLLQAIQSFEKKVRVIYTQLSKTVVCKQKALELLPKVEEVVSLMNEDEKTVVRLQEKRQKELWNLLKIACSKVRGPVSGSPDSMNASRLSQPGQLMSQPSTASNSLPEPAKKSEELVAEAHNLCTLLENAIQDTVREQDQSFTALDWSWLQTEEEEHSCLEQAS

[3] = biological target: Tyrosine-protein kinase ABL2 (Homo sapiens) (UniProt P42684); experiment: Inhibition of human truncated Arg expressed in baculovirus assessed as substrate phosphorylation using fluorescence-labelled peptides as substrate at 95 uM after 90 mins by microfluidic peptide phosphorylation assay
Tyrosine-protein kinase ABL2 (Homo sapiens), sequence (P42684 whole entry, the tested form may be a part): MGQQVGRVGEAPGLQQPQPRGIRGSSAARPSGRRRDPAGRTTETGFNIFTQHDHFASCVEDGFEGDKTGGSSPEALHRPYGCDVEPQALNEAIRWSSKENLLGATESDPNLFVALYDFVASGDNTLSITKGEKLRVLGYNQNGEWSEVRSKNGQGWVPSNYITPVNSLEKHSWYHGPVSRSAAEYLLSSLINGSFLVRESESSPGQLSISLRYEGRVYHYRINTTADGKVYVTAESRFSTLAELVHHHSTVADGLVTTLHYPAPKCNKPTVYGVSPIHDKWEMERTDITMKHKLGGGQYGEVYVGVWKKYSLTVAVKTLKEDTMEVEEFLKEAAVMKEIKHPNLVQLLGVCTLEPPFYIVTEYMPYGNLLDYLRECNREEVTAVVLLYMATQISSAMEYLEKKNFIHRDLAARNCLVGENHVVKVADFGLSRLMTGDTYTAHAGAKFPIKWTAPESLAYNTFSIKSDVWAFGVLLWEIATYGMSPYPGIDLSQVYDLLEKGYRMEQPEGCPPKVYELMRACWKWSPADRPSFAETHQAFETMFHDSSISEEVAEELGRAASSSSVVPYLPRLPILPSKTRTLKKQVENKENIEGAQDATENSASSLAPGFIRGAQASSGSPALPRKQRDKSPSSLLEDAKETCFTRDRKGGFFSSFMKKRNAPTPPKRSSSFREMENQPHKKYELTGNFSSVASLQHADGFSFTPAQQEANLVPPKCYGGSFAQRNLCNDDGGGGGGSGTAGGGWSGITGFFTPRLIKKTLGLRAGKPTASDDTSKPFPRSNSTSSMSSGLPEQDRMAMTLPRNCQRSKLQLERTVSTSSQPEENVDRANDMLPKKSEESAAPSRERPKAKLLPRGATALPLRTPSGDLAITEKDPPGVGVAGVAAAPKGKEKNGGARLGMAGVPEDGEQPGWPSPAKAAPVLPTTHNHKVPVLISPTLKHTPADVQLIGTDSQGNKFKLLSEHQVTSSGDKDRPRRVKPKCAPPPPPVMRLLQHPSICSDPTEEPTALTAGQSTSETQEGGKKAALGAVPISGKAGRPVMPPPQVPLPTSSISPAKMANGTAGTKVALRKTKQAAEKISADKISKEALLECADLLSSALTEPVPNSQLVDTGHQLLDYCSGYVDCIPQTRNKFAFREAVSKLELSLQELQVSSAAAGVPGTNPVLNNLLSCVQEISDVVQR

[4] = biological target: T2, Serine/threonine-protein kinase D1 (Homo sapiens) (UniProt Q15139); experiment: Inhibition of human full length PKD1 expressed in baculovirus assessed as substrate phosphorylation using fluorescence-labelled peptides as substrate at 1000 uM after 90 mins by microfluidic peptide phosphorylation assay
T2 sequence (whole entry): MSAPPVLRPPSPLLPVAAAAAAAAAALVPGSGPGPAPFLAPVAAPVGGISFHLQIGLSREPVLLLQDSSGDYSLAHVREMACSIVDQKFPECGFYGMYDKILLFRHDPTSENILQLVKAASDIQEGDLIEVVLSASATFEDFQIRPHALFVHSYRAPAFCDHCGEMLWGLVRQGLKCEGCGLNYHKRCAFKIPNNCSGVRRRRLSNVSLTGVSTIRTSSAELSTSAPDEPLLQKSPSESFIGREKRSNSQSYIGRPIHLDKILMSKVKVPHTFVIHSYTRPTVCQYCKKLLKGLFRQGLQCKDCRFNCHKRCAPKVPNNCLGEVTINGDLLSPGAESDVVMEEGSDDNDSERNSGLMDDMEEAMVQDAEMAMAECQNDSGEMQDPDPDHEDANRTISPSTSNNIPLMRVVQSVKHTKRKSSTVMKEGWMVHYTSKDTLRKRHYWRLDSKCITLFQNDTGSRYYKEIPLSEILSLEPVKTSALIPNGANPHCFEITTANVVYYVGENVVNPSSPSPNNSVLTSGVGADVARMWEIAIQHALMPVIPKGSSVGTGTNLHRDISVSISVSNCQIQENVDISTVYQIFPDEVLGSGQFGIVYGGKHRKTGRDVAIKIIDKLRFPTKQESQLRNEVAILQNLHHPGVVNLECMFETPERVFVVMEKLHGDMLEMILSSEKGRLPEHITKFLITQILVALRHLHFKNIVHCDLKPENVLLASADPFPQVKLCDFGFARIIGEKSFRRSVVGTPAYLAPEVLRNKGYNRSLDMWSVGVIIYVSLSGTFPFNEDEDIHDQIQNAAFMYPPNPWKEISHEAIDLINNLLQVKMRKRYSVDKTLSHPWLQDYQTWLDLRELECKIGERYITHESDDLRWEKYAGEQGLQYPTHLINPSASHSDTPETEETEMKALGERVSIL

[5] = biological target: T3, Serine/threonine-protein kinase BRSK2 (Homo sapiens) (UniProt Q8IWQ3); experiment: Inhibition of human truncated BRSK2 expressed in baculovirus assessed as substrate phosphorylation using fluorescence-labelled peptides as substrate at 1000 uM after 90 mins by microfluidic peptide phosphorylation assay
T3 sequence (whole entry): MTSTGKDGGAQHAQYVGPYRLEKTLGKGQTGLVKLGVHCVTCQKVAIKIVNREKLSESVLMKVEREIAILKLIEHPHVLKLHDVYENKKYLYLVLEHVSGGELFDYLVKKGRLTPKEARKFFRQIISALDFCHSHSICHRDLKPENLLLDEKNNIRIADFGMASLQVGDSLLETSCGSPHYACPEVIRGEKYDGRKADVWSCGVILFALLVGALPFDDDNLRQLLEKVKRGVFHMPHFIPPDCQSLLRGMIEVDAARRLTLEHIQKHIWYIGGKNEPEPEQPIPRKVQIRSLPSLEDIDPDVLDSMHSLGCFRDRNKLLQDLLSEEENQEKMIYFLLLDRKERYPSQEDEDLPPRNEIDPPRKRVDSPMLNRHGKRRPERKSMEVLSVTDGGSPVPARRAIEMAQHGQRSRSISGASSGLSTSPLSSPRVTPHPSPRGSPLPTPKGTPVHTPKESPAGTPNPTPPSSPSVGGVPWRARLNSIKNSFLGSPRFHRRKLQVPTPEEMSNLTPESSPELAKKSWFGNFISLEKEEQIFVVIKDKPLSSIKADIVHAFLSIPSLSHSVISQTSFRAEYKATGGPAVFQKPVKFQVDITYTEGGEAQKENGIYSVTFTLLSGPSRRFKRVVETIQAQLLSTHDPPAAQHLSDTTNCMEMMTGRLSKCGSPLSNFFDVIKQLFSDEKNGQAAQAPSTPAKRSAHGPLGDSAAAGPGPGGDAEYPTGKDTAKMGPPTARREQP

`c1nc(N2CCOCC2)c2nc[nH]c2n1` gave an inhibition [1] of 55%.

`Clc1ccc(C2(c3ccc(-c4ncnc5[nH]cnc45)cc3)CCNCC2)cc1` showed an inhibition [2] of 81%.

Work on `NCCc1ccc(-c2ncnc3[nH]cnc23)cc1` yielded an inhibition [3] of 50.5%.

With `c1cnc2[nH]ccc2c1` the inhibition [4] was 54% and the inhibition [5] was 28%.
